Data reported in PubChem BioAssay AID256 (DTP/NCI, 2004).
Several values for one entry are separate records, joined by “and”; a condition that tells them apart may be missing. Equal values may be shown once. Toxic doses and inconclusive results are not listed. Rule for the calls: active = survival T/C of 150% or more; inactive = T/C below 125% in these data.

Tested on: CD2F1 mice, L1210 leukemia ip, survival T/C
Assay: NCI In Vivo Anticancer Drug Screen. Data for tumor model L1210 Leukemia (intraperitoneal) in CD2F1 (CDF1) mice
Conditions: higher = longer survival
Outline: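 Implant tumor; dose compound or vehicle; measure endpoint in both groups; report treated divided by control.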

[1] = endpoint: mean survival time, dose: 100.0 mg/kg/injection, schedule: Q01DX009 (ip), vehicle: other
[2] = endpoint: mean survival time, dose: 200.0 mg/kg/injection, schedule: Q01DX009 (ip), vehicle: other
[3] = endpoint: mean survival time, dose: 100.0 mg/kg/injection, schedule: Q01DX001 (ip), vehicle: saline with Tween-80
[4] = endpoint: mean survival time, dose: 200.0 mg/kg/injection, schedule: Q01DX001 (ip), vehicle: saline with Tween-80
[5] = endpoint: mean survival time, dose: 100.0 mg/kg/injection, schedule: Q01DX009 (ip), vehicle: saline
[6] = endpoint: mean survival time, dose: 200.0 mg/kg/injection, schedule: Q01DX009 (ip), vehicle: saline
[7] = endpoint: mean survival time, dose: 100.0 mg/kg/injection, schedule: Q04DX003 (ip), vehicle: saline with Tween-80
[8] = endpoint: mean survival time, dose: 200.0 mg/kg/injection, schedule: Q04DX003 (ip), vehicle: saline with Tween-80
[9] = endpoint: mean survival time, dose: 400.0 mg/kg/injection, schedule: Q04DX003 (ip), vehicle: saline with Tween-80
[10] = endpoint: mean survival time, dose: 100.0 mg/kg/injection, schedule: Q01DX009 (ip), vehicle: saline with Tween-80
[11] = endpoint: mean survival time, dose: 200.0 mg/kg/injection, schedule: Q01DX009 (ip), vehicle: saline with Tween-80
[12] = endpoint: mean survival time, dose: 400.0 mg/kg/injection, schedule: Q01DX009 (ip), vehicle: saline with Tween-80
[13] = endpoint: mean survival time, dose: 25.0 mg/kg/injection, schedule: Q01DX009 (ip), vehicle: saline with Tween-80
[14] = endpoint: mean survival time, dose: 50.0 mg/kg/injection, schedule: Q01DX009 (ip), vehicle: saline with Tween-80

Measured: T/C

OCc1cc(Cl)cc(Cl)c1O
inactive: [1] 93 % of control | endpoint: mean survival time, dose: 100.0 mg/kg/injection, schedule: Q04DX003 (ip), vehicle: other 92 % of control | [2] 93 % of control | endpoint: mean survival time, dose: 200.0 mg/kg/injection, schedule: Q04DX003 (ip), vehicle: other 92 % of control

O=Nn1c2ccccc2c2ccccc21
inactive: endpoint: mean survival time, dose: 50.0 mg/kg/injection, schedule: Q01DX009 (ip), vehicle: Klucel (hydroxypropylcellulose) (HPC) 90 % of control | endpoint: mean survival time, dose: 100.0 mg/kg/injection, schedule: Q01DX009 (ip), vehicle: Klucel (hydroxypropylcellulose) (HPC) 98 % of control | endpoint: mean survival time, dose: 200.0 mg/kg/injection, schedule: Q01DX009 (ip), vehicle: Klucel (hydroxypropylcellulose) (HPC) 102 % of control

OCC1OC(n2ncc3cncnc32)C(O)C1O (stereo not drawn)
inactive: endpoint: mean survival time, dose: 25.0 mg/kg/injection, schedule: Q01DX009 (ip), vehicle: other 94 % of control | endpoint: mean survival time, dose: 50.0 mg/kg/injection, schedule: Q01DX009 (ip), vehicle: other 97 % of control | [1] 90 % of control | [2] 97 % of control

CCOC(=O)C(C)CN(CC(C)C(=O)OCC)C(C)(C)C (stereo not drawn)
inactive: [3] 112 % of control | [4] 100 % of control

Nc1nc(N)c2c(n1)NCN(CCc1ccc(Cl)cc1Cl)C2
inactive: endpoint: mean survival time, dose: 0.75 mg/kg/injection, schedule: Q01DX009 (ip), vehicle: distilled water + Tween-80 100 % of control | endpoint: mean survival time, dose: 1.5 mg/kg/injection, schedule: Q01DX009 (ip), vehicle: distilled water + Tween-80 102 % of control | endpoint: mean survival time, dose: 3.0 mg/kg/injection, schedule: Q01DX009 (ip), vehicle: distilled water + Tween-80 100 % of control | endpoint: mean survival time, dose: 6.0 mg/kg/injection, schedule: Q01DX009 (ip), vehicle: distilled water + Tween-80 102 % of control | endpoint: mean survival time, dose: 12.0 mg/kg/injection, schedule: Q01DX009 (ip), vehicle: distilled water + Tween-80 96 % of control | endpoint: mean survival time, dose: 24.0 mg/kg/injection, schedule: Q01DX009 (ip), vehicle: distilled water + Tween-80 98 % of control | endpoint: mean survival time, dose: 37.5 mg/kg/injection, schedule: Q01DX009 (ip), vehicle: distilled water + Tween-80 96 % of control | endpoint: mean survival time, dose: 75.0 mg/kg/injection, schedule: Q01DX009 (ip), vehicle: distilled water + Tween-80 94 % of control

O=[N+]([O-])CC(O)C(O)C(O)C(O)CO (stereo not drawn)
inactive: [5] 107 % of control | [6] 112 % of control | endpoint: mean survival time, dose: 400.0 mg/kg/injection, schedule: Q01DX009 (ip), vehicle: saline 107 % of control

O=C1OC(=O)C2C1C1CCC2C1(c1ccccc1)c1ccccc1 (stereo not drawn)
inactive: [7] 97 % of control | [8] 97 % of control | [9] 97 % of control

CCCCCCCCCCCCCCCC(=O)N(CCCN(C)C)CCCN(CCCN(C)C)C(=O)CCCCCCCCCCCCCCC
inactive: endpoint: mean survival time, dose: 1.56 mg/kg/injection, schedule: Q01DX009 (ip), vehicle: water 101 % of control | endpoint: mean survival time, dose: 3.13 mg/kg/injection, schedule: Q01DX009 (ip), vehicle: water 98 % of control | endpoint: mean survival time, dose: 6.25 mg/kg/injection, schedule: Q01DX009 (ip), vehicle: water 95 % of control | endpoint: mean survival time, dose: 12.5 mg/kg/injection, schedule: Q01DX009 (ip), vehicle: water 94 % of control and 95 % of control | endpoint: mean survival time, dose: 25.0 mg/kg/injection, schedule: Q01DX009 (ip), vehicle: water 95 % of control

CC(C)(O)C(=O)O
inactive: endpoint: mean survival time, dose: 50.0 mg/kg/injection, schedule: Q01DX009 (ip), vehicle: saline 96 % of control | [5] 93 % of control | [6] 86 % of control

O=C(/C=C/C(=N\Nc1ccccc1)c1ccccc1)c1ccccc1
inactive: [3] 96 % of control | [4] 94 % of control | endpoint: mean survival time, dose: 400.0 mg/kg/injection, schedule: Q01DX001 (ip), vehicle: saline with Tween-80 97 % of control

O=c1c([N+](=O)[O-])c[nH]c2ccccc12
inactive: endpoint: mean survival time, dose: 100.0 mg/kg/injection, schedule: Q04DX002 (ip), vehicle: saline with Tween-80 95 % of control | endpoint: mean survival time, dose: 200.0 mg/kg/injection, schedule: Q04DX002 (ip), vehicle: saline with Tween-80 95 % of control | endpoint: mean survival time, dose: 400.0 mg/kg/injection, schedule: Q04DX002 (ip), vehicle: saline with Tween-80 103 % of control

CC1CN=C(c2ccc(Br)cc2)O1 (stereo not drawn)
inactive: endpoint: mean survival time, dose: 100.0 mg/kg/injection, schedule: Q04DX003 (ip), vehicle: saline 103 % of control | endpoint: mean survival time, dose: 200.0 mg/kg/injection, schedule: Q04DX003 (ip), vehicle: saline 96 % of control | endpoint: mean survival time, dose: 400.0 mg/kg/injection, schedule: Q04DX003 (ip), vehicle: saline 103 % of control

Nc1ccc(N2CCNCC2)cc1
inactive: [7] 104 % of control | [8] 101 % of control

CCC1C(=O)NC(=O)NC1=O
inactive: [10] 96 % of control | [7] 98 % of control | [11] 94 % of control | [8] 94 % of control | [12] 93 % of control | [9] 96 % of control

C=CC1(C)CCN=C(CCN2CCCCC2)O1 (stereo not drawn)
inactive: endpoint: mean survival time, dose: 100.0 mg/kg/injection, schedule: Q01DX001 (ip), vehicle: saline sonified 97 % of control | endpoint: mean survival time, dose: 200.0 mg/kg/injection, schedule: Q01DX001 (ip), vehicle: saline sonified 100 % of control

CCOC1(C)CCC/C(=N/Nc2ccc([N+](=O)[O-])cc2[N+](=O)[O-])C1 (stereo not drawn)
inactive: endpoint: mean survival time, dose: 100.0 mg/kg/injection, schedule: Q04DX003 (ip), vehicle: Klucel (hydroxypropylcellulose) (HPC) 97 % of control | endpoint: mean survival time, dose: 200.0 mg/kg/injection, schedule: Q04DX003 (ip), vehicle: Klucel (hydroxypropylcellulose) (HPC) 100 % of control | endpoint: mean survival time, dose: 400.0 mg/kg/injection, schedule: Q04DX003 (ip), vehicle: Klucel (hydroxypropylcellulose) (HPC) 100 % of control

Cc1[nH]c2ccccc2c1C(c1cc(Cl)cc(Cl)c1O)c1c(C)[nH]c2ccccc12
inactive: [13] 88 % of control | [14] 86 % of control | [10] 86 % of control | [11] 86 % of control

[CH3][Sn]([CH3])([Cl])[Cl]
inactive: endpoint: mean survival time, dose: 5.0 mg/kg/injection, schedule: Q01DX009 (ip), vehicle: saline 106 % of control | endpoint: mean survival time, dose: 10.0 mg/kg/injection, schedule: Q01DX009 (ip), vehicle: saline 98 % of control | endpoint: mean survival time, dose: 20.0 mg/kg/injection, schedule: Q01DX009 (ip), vehicle: saline 95 % of control

CC(C)NC(=O)C1CC2c3cccc4[nH]cc(c34)CC2N(C)C1 (stereo not drawn)
inactive: [13] 101 % of control | [14] 98 % of control | endpoint: mean survival time, dose: 50.0 mg/kg/injection, schedule: Q04DX003 (ip), vehicle: saline with Tween-80 96 % of control | [10] 102 % of control | [7] 105 % of control

O=S1(=O)Cc2c(Br)c(Br)c(Br)c(Br)c2C1
inactive: endpoint: mean survival time, dose: 12.5 mg/kg/injection, schedule: Q01DX009 (ip), vehicle: saline with Tween-80 90 % of control | [13] 88 % of control | [14] 86 % of control | [7] 101 % of control | [8] 110 % of control | [9] 96 % of control

CCCCCc1ccc(C#N)cc1
inactive: endpoint: mean survival time, dose: 50.0 mg/kg/injection, schedule: Q01DX001 (ip), vehicle: saline 100 % of control | endpoint: mean survival time, dose: 100.0 mg/kg/injection, schedule: Q01DX001 (ip), vehicle: saline 97 % of control | endpoint: mean survival time, dose: 200.0 mg/kg/injection, schedule: Q01DX001 (ip), vehicle: saline 89 % of control | endpoint: mean survival time, dose: 400.0 mg/kg/injection, schedule: Q01DX001 (ip), vehicle: saline 93 % of control

CC(C)(C)C(O)CC(O)(C(F)(F)Cl)C(F)(F)Cl (stereo not drawn)
inactive: [10] 101 % of control | [11] 109 % of control | [12] 105 % of control

C/C(CCC(=O)O)=N\NC(N)=O
inactive: [10] 97 % of control | [7] 95 % of control | [11] 97 % of control | [8] 90 % of control | [12] 93 % of control

C1=CC2CC2C1 (stereo not drawn)
inactive: endpoint: median survival time, dose: 50.0 mg/kg/injection, schedule: Q04DX002 (ip), vehicle: saline with Tween-80 88 % of control | endpoint: median survival time, dose: 100.0 mg/kg/injection, schedule: Q04DX002 (ip), vehicle: saline with Tween-80 88 % of control | endpoint: median survival time, dose: 200.0 mg/kg/injection, schedule: Q04DX002 (ip), vehicle: saline with Tween-80 88 % of control | endpoint: median survival time, dose: 400.0 mg/kg/injection, schedule: Q04DX002 (ip), vehicle: saline with Tween-80 88 % of control

CC(=O)NC1C=CC(=O)O1 (stereo not drawn)
inactive: endpoint: mean survival time, dose: 18.75 mg/kg/injection, schedule: Q01DX001 (ip), vehicle: saline 121 % of control | endpoint: mean survival time, dose: 37.5 mg/kg/injection, schedule: Q01DX001 (ip), vehicle: saline 119 % of control
